Assay results reported in US6737383B1, “Herbicidal oxadiazolidines” (priority 1999, dated 2004).

Columns and labels:
[1] = test system: bedstraw; test: Test B pre/postemergence bedstraw; format: in vivo, Galium aparine; settings: Postemergence, scale 0 to 10 (0 no effect, 10 complete control)
How it was run: (§1)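 Response is a visual 0-to-10 score relative to untreated plants, where 0 means no effect and 10 means complete control, taken twelve to sixteen days after application. Treatments went onto soil at planting and onto foliage of 1- to 4-leaf plants, using a surfactant-containing non-phytotoxic solvent.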

[2] = test system: blackgrass; test: Test B pre/postemergence blackgrass; format: in vivo, Alopecurus myosuroides; settings: for Plant response rating, Blackgrass: scale of 0 to 10 where 0 is no effect and 10 is complete control
How it was run: as §1

[3] = test system: surinam grass; test: Test B pre/postemergence surinam grass; format: in vivo, Brachiaria decumbens; settings: for Plant response rating, B. signalgrass: scale of 0 to 10 where 0 is no effect and 10 is complete control
How it was run: as §1

[4] = test system: cocklebur; test: Test B pre/postemergence cocklebur; format: in vivo, Xanthium strumarium; settings: for Plant response rating, Cocklebur: scale of 0 to 10 where 0 is no effect and 10 is complete control
How it was run: as §1

[5] = test system: corn; test: Test B pre/postemergence corn; format: in vivo, Zea mays; settings: for Plant response rating, Corn: scale of 0 to 10 where 0 is no effect and 10 is complete control
How it was run: as §1

[6] = test system: giant foxtail; test: Test B pre/postemergence giant foxtail; format: in vivo, Setaria faberii; settings: for Plant response rating, Giant foxtail: scale of 0 to 10 where 0 is no effect and 10 is complete control
How it was run: as §1

[7] = test system: morningglory; test: Test B pre/postemergence morningglory; format: in vivo, Ipomoea hederacea; settings: for Plant response rating, Morningglory: scale of 0 to 10 where 0 is no effect and 10 is complete control
How it was run: as §1

[8] = test system: pigweed; test: Test B pre/postemergence pigweed; format: in vivo, Amaranthus retroflexus; settings: for Plant response rating, Redroot pigweed: scale of 0 to 10 where 0 is no effect and 10 is complete control
How it was run: as §1

[9] = test system: rape; test: Test B pre/postemergence rape; format: in vivo, Brassica napus; settings: for Plant response rating, Rape: scale of 0 to 10 where 0 is no effect and 10 is complete control
How it was run: as §1

[10] = test system: sugar beet; test: Test B pre/postemergence sugar beet; format: in vivo, Beta vulgaris; settings: for Plant response rating, Sugarbeets: scale of 0 to 10 where 0 is no effect and 10 is complete control
How it was run: as §1

[11] = test system: velvetleaf; test: Test B pre/postemergence velvetleaf; format: in vivo, Abutilon theophrasti; settings: for Plant response rating, Velvetleaf: scale of 0 to 10 where 0 is no effect and 10 is complete control
How it was run: as §1

[12] = test system: purple nutsedge; test: Test B pre/postemergence purple nutsedge; format: in vivo, Cyperus rotundus; settings: for Plant response rating, Nutsedge: scale of 0 to 10 where 0 is no effect and 10 is complete control
How it was run: as §1

[13] = test system: rice; test: Test B flood test rice; format: in vivo, Oryza sativa
How it was run: (§2)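 Plants were grown to the 2-leaf stage before treatment with test chemical, then held in a greenhouse for twelve to sixteen days. Injury was visually rated against untreated controls on a 0–10 scale, where 0 is no effect and 10 is complete control.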

[14] = test system: duck salad; test: Test B flood test duck salad; format: in vivo, Heteranthera limosa
How it was run: as §2

[15] = test system: bamyardgrass; test: Test B flood test barnyardgrass; format: in vivo, Echinochloa crus-galli
How it was run: as §2

[16] = Postemergence, Rate 31 g/ha, visual rating, scale 0 to 10 (0 no effect, 10 complete control)
[17] = Postemergence, Rate 250 g/ha, scale 0 to 10
[18] = Preemergence, Rate 31 g/ha, visual rating, scale 0 to 10 (0 no effect, 10 complete control)
[19] = Preemergence, Rate 250 g/ha, scale 0 to 10, 0 is no effect, 10 is complete control
[20] = Rate 62 g/ha, Postemergence, scale 0 to 10 (0 no effect, 10 complete control)
[21] = Rate 125 g/ha, Postemergence, scale 0 to 10, 0 is no effect, 10 is complete control
[22] = Rate 31 g/ha, Pre-emergence section (flood test species), scale 0 to 10
[23] = Rate 62 g/ha, flood test species, Pre-emergence, visual evaluation after twelve to sixteen days
[24] = Rate 125 g/ha, under heading Pre-emergence, flood test species, visual evaluation after twelve to sixteen days
[25] = Rate 250 g/ha, Pre-emergence (flood test species), scale 0 to 10, 0 is no effect, 10 is complete control

SMILES: Cc1nc(C)c(C(C)n2c(=O)on(C(=O)N(c3ccccc3)C(C)C)c2=O)s1 (stereo not drawn) [Compound 442]
- Bedstraw plant response rating ([1]; Rate 31 g/ha, visual rating): 0
- Bedstraw plant response rating ([1]; Rate 62 g/ha): 0
- Blackgrass plant response rating [2, 16]: 0
- Blackgrass plant response rating [2, 17]: 0
- Blackgrass plant response rating [2, 18]: 0
- Plant response rating, Blackgrass ([2]; Preemergence, Rate 62 g/ha): 0
- Plant response rating, Blackgrass ([2]; Preemergence, Rate 125 g/ha): 0
- Blackgrass plant response rating [2, 19]: 0
- Blackgrass plant response rating [2, 20]: 0
- Blackgrass plant response rating [2, 21]: 0
- B. signalgrass plant response rating [3, 16]: 0
- B. signalgrass plant response rating ([3]; Postemergence, Rate 250 g/ha, scale 0 to 10, 0 no effect, 10 complete control): 0
- B. signalgrass plant response rating [3, 18]: 0
- Plant response rating, B. signalgrass ([3]; Preemergence, Rate 62 g/ha): 0
- Plant response rating, B. signalgrass ([3]; Preemergence, Rate 125 g/ha): 0
- B. signalgrass plant response rating [3, 19]: 0
- B. signalgrass plant response rating [3, 20]: 0
- B. signalgrass plant response rating [3, 21]: 0
- Cocklebur plant response rating [4, 16]: 0
- Cocklebur plant response rating [4, 17]: 0
- Cocklebur plant response rating [4, 18]: 0
- Plant response rating, Cocklebur ([4]; Preemergence, Rate 62 g/ha): 0
- Plant response rating, Cocklebur ([4]; Preemergence, Rate 125 g/ha): 0
- Cocklebur plant response rating [4, 19]: 0
- Cocklebur plant response rating [4, 20]: 0
- Cocklebur plant response rating [4, 21]: 0
- Corn plant response rating [5, 16]: 0
- Corn plant response rating [5, 17]: 0
- Corn plant response rating [5, 18]: 0
- Plant response rating, Corn ([5]; Preemergence, Rate 62 g/ha): 0
- Plant response rating, Corn ([5]; Preemergence, Rate 125 g/ha): 0
- Corn plant response rating [5, 19]: 0
- Corn plant response rating [5, 20]: 0
- Corn plant response rating [5, 21]: 0
- Giant foxtail plant response rating [6, 16]: 0
- Giant foxtail plant response rating [6, 17]: 0
- Giant foxtail plant response rating [6, 18]: 0
- Plant response rating, Giant foxtail ([6]; Preemergence, Rate 62 g/ha): 0
- Plant response rating, Giant foxtail ([6]; Preemergence, Rate 125 g/ha): 0
- Giant foxtail plant response rating [6, 19]: 3
- Giant foxtail plant response rating [6, 20]: 0
- Giant foxtail plant response rating [6, 21]: 0
- Morningglory plant response rating [7, 16]: 1
- Morningglory plant response rating [7, 17]: 7
- Plant response rating, Morningglory ([7]; Preemergence, Rate 62 g/ha): 0
- Plant response rating, Morningglory ([7]; Preemergence, Rate 125 g/ha): 0
- Morningglory plant response rating [7, 19]: 0
- Morningglory plant response rating [7, 20]: 4
- Morningglory plant response rating [7, 21]: 4
- Redroot pigweed plant response rating [8, 16]: 0
- Redroot pigweed plant response rating [8, 17]: 0
- Plant response rating, Redroot pigweed ([8]; Preemergence, Rate 62 g/ha): 0
- Plant response rating, Redroot pigweed ([8]; Preemergence, Rate 125 g/ha): 0
- Redroot pigweed plant response rating [8, 19]: 0
- Redroot pigweed plant response rating [8, 20]: 0
- Redroot pigweed plant response rating [8, 21]: 0
- Rape plant response rating [9, 16]: 0
- Rape plant response rating [9, 17]: 0
- Plant response rating, Rape ([9]; Preemergence, Rate 62 g/ha): 0
- Plant response rating, Rape ([9]; Preemergence, Rate 125 g/ha): 0
- Rape plant response rating [9, 19]: 0
- Rape plant response rating [9, 20]: 0
- Rape plant response rating [9, 21]: 0
- Sugarbeets plant response rating [10, 16]: 0
- Sugarbeets plant response rating [10, 17]: 0
- Plant response rating, Sugarbeets ([10]; Preemergence, Rate 62 g/ha): 0
- Plant response rating, Sugarbeets ([10]; Preemergence, Rate 125 g/ha): 0
- Sugarbeets plant response rating [10, 19]: 0
- Sugarbeets plant response rating [10, 20]: 0
- Sugarbeets plant response rating [10, 21]: 0
- Velvetleaf plant response rating [11, 16]: 0
- Velvetleaf plant response rating [11, 17]: 0
- Plant response rating, Velvetleaf ([11]; Preemergence, Rate 62 g/ha): 0
- Plant response rating, Velvetleaf ([11]; Preemergence, Rate 125 g/ha): 0
- Velvetleaf plant response rating [11, 19]: 0
- Velvetleaf plant response rating [11, 20]: 0
- Velvetleaf plant response rating [11, 21]: 0
- Nutsedge plant response rating [12, 16]: 0
- Nutsedge plant response rating [12, 17]: 0
- Plant response rating, Nutsedge ([12]; Preemergence, Rate 62 g/ha): 0
- Plant response rating, Nutsedge ([12]; Preemergence, Rate 125 g/ha): 0
- Nutsedge plant response rating [12, 19]: 0
- Nutsedge plant response rating [12, 20]: 0
- Nutsedge plant response rating [12, 21]: 0
- Rice plant response rating [13, 22]: 0
- Plant response rating, Rice (0 to 10 scale, 0 is no effect, 10 is complete control) [13, 23]: 0
- Rice plant response rating (0 to 10 scale, 0 is no effect, 10 is complete control) [13, 24]: 0
- Rice plant response rating [13, 25]: 0
- Ducksalad plant response rating [14, 22]: 0
- Plant response rating, Ducksalad (0 to 10 scale, 0 is no effect, 10 is complete control) [14, 23]: 0
- Ducksalad plant response rating (0 to 10 scale, 0 is no effect, 10 is complete control) [14, 24]: 0
- Ducksalad plant response rating [14, 25]: 0
- Barnyardgrass plant response rating [15, 22]: 0
- Plant response rating, Barnyardgrass (0 to 10 scale, 0 is no effect, 10 is complete control) [15, 23]: 0
- Barnyardgrass plant response rating (0 to 10 scale, 0 is no effect, 10 is complete control) [15, 24]: 0
- Barnyardgrass plant response rating [15, 25]: 0
